The structures appear in SMILES notation. Read-outs that look alike come from different tables or passages of the source.

These results are taken from publication PMC10823468, “Design, Synthesis, and Evaluation of New 1H-Benzo[d]imidazole Based PqsR Inhibitors as Adjuvant Therapy for Pseudomonas aeruginosa Infections” (Journal of Medicinal Chemistry, 2024).

Data set [1] deals with A549 human lung epithelial carcinoma cell line. Description: A549 cytotoxicity assay (resazurin / alamar blue). Type of data set: cell-based. Particulars: at concentrations up to 100 μM (1, 50, 100 μM), 24 h. How it is done: Establishing the safety profile of new chemical entities is paramount for further drug development. […] The assay employed resazurin reduction, a sensitive fluorometric assay widely used as a standard methodology in drug discovery research.[35] This assay relies on the ability of living cells to reduce resazurin to the fluorescent compound, resorufin, which indicates the rate of the metabolic activity as a means to quantify cell viability.
Cell viability was assessed according to Nimesh et al.[51] on A549 adenocarcinomic human alveolar basal epithelial cell line. The viability of the A549 cell line was assessed after overnight incubation with three concentrations (1, 50, and 100 μM) of the corresponding compound using alamar blue (resazurin) dye. Cells were maintained in the Dulbecco’s Modified Essential Medium (DMEM) supplemented with 10% fetal bovine serum (FBS) and 1% penicillin–streptomycin–neomycin (PSN). After that, 100 μL of suspended cells with a final concentration (1 × 10^4 cells/wall) were seeded in 96-well plates with 100 μL of (1, 50, 100 μM) concentrations of the tested compound was dispensed in sextuplicate. […] The plates were further incubated for 4–6 h and the intensity of the fluorescence was measured using an excitation light of 510 nm and measuring the fluorescence output at 590 nm. The cell viability in each well was normalized to the DMSO reading.
Background: Alamar Blue is a resazurin reagent that responds to reducing activity.

Data set [2] has as its system PqsR (PqsR-controlled pqsA promoter, PA14 mCTX::PpqsA-lux). Description: Bioluminescent reporter assay, PA14 mCTX::PpqsA-lux. The conditions noted are these: Pseudomonas aeruginosa, PA14, read-out: IC50 (μM) PA14 mCTX::PpqsA-lux. It counts as cell-based. How it is done: (§1) An extensive SAR was performed on 6a to investigate the role of substitutions around various positions of the benzimidazole ring (groups R1–R3) as well as the aromatic tail (groups R4–R5) to fine-tune the potency of this series (6a–u) (Table 2). The activity of these analogues to inhibit the pqs QS system was evaluated in the PAO1-L and PA14 strains (that belong to the two major P. aeruginosa genomic lineages), both harboring a chromosomally integrated mCTX::PpqsA-lux transcriptional fusion to report for the activity of pqs system. Successful pharmacological blocking of AQ signal reception at the level of PqsR leads to a reduced transcription of the pqsA-lux genes and ultimately reduction in the luminescence readout.
(§2) Strains PA14 mCTX::PpqsA-lux and PAO1-L mCTX::PpqsA-lux were used to detect PqsR-controlled activation of the pqsA promoter, as previously described,[45] and the assay was performed according to a published method.[46] For initial screening, the compounds were tested at a concentration of 10 μM, which was prepared from a 10 mM stock, in DMSO.

The test system of data set [3] is PqsR (PqsR-controlled pqsA promoter, PAO1-L mCTX::PpqsA-lux). Description: Bioluminescent reporter assay, PAO1-L mCTX::PpqsA-lux. Particulars: Pseudomonas aeruginosa, PAO1, read-out: IC50 (μM) PAO1-L mCTX::PpqsA-lux. It counts as cell-based, Pseudomonas aeruginosa. How it is done: as §1, §2
For orientation: A reporter such as luciferase makes a cellular process visible.

For data set [4] the test system is unchanged. On the set-up: method as in PMID 34503335. The conditions noted are these: previously reported inhibitor; read-out: IC50 in P. aeruginosa PAO1-L; cited from earlier work.

Regarding `CC(C)n1c(NCC(O)COc2ccc(CC#N)cc2F)nc2ccc(Cl)cc21` (stereo not shown) [Compound 6n, 2-(4-(3-((6-Chloro-1-isopropyl-1H-benzo[d]imidazol-2-yl)amino)-2-hydroxypropoxy)-3-fluorophenyl) Acetonitrile], in data set [1], the “cytotoxicity for A549 cells” value is “not cytotoxic”. Moreover, the IC50 in data set [2] turned out to be 0.11 ± 0.01 µM; in data set [3], 0.05 ± 0.02 µM.

Take `N#CCc1ccc(OCC(O)Cn2cnc3ccc(Cl)cc3c2=O)cc1` (stereo not shown) [Compound 1]: the IC50 in data set [4] is 3200 nM.

By IC50 is commonly meant the concentration at which inhibition is half-maximal.
